Holding throughout (conditions): binder
Assay [1] has as its target BRAF (Homo sapiens, UniProt P15056).
Assay [2] addresses DAPK3 (Homo sapiens, UniProt O43293).
The target of assay [3] is T1, EphB3 (Homo sapiens, UniProt P54753).
T1 sequence (P54753 1-998): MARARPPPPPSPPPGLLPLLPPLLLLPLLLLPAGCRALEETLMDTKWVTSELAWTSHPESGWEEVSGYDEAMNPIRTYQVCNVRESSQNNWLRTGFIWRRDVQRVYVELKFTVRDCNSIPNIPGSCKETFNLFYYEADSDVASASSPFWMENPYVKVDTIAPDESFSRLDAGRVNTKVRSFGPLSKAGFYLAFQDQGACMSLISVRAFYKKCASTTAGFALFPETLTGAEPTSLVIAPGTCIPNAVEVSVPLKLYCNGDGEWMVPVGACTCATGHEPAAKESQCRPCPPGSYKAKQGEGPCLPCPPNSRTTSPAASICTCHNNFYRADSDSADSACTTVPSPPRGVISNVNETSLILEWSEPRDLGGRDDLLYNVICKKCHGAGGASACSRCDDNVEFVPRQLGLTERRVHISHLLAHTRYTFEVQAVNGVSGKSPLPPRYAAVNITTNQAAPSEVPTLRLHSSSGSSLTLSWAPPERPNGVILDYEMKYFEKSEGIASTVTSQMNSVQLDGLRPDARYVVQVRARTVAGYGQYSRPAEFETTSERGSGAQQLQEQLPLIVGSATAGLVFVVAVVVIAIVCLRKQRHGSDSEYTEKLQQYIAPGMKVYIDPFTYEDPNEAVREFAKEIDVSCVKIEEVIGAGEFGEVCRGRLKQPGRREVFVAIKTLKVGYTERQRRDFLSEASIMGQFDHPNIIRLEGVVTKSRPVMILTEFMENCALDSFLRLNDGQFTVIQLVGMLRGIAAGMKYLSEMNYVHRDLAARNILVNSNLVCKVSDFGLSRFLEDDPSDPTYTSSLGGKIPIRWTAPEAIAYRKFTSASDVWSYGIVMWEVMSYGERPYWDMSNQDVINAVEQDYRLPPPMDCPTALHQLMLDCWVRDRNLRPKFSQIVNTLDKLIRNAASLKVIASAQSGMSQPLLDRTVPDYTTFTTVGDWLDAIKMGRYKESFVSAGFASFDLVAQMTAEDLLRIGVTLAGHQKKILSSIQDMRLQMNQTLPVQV

For assay [4], the target named is FGFR1 (Homo sapiens, UniProt P11362).
Sequence of FGFR1 (P11362 whole entry): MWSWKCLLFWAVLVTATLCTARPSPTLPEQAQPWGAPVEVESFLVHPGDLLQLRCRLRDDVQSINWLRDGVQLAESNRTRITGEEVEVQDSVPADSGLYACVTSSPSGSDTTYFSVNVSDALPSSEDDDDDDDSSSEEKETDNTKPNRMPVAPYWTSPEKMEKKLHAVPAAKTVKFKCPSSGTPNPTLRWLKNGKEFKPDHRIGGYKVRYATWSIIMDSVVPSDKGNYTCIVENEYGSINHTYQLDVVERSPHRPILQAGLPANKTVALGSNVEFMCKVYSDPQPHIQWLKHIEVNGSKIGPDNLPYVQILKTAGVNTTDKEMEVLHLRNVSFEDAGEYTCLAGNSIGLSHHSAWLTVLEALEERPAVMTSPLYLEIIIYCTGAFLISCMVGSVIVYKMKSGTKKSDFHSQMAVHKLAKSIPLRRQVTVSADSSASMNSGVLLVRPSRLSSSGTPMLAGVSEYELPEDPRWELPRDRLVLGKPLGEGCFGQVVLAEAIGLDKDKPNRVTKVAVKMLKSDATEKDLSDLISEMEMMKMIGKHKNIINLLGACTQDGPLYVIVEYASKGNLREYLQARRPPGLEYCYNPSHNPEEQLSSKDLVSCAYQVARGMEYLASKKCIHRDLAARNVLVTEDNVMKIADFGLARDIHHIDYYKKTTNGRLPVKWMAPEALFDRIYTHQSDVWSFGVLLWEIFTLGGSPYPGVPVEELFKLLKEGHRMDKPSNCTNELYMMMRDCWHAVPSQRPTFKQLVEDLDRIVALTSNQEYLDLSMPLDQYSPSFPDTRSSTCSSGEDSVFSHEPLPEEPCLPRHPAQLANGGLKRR
The target in assay [5] is T2, MER (Homo sapiens, UniProt Q12866).
T2 sequence (Q12866 1-999): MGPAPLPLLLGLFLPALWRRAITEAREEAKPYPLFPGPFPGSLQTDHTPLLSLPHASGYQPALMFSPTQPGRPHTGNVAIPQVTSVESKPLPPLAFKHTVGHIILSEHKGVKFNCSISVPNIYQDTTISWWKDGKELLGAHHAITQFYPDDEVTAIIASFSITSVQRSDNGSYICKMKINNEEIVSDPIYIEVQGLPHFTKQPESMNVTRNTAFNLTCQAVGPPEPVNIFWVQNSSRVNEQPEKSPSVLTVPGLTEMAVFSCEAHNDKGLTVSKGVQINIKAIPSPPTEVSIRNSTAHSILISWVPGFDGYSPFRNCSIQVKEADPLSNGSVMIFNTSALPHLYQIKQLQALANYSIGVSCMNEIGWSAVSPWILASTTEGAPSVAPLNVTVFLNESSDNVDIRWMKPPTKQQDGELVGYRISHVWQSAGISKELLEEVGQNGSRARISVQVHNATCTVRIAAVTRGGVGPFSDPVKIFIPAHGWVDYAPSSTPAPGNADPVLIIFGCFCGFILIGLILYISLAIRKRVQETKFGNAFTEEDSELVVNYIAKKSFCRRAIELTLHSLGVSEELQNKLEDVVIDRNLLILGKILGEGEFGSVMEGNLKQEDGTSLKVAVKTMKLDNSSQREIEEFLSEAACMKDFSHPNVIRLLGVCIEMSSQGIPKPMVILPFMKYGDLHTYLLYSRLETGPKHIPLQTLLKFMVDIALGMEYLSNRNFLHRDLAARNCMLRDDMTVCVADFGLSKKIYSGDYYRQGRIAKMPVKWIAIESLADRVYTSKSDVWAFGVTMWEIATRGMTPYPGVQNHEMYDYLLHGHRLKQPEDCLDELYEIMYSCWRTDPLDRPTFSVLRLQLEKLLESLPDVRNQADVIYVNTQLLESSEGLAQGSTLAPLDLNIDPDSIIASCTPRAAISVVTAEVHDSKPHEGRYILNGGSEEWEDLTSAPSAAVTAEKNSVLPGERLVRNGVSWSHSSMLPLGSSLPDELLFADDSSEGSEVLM

Assay [6] addresses MST4 (Homo sapiens, UniProt Q9P289).
Assay [7] deals with NDR2 (Homo sapiens, UniProt Q9Y2H1).
Sequence of NDR2 (Q9Y2H1 whole entry): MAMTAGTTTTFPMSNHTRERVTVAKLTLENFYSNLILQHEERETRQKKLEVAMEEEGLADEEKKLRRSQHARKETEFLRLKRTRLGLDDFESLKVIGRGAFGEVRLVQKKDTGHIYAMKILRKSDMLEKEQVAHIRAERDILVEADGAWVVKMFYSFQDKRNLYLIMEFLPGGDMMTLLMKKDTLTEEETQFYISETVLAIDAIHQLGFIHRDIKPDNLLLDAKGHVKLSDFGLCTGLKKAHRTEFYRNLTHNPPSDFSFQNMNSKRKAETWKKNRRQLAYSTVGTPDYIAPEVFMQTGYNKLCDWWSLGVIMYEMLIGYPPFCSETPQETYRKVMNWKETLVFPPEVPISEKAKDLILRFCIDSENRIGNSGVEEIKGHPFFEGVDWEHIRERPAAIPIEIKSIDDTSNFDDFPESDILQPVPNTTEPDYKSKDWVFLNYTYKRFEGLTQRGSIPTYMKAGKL
The target of assay [8] is PAK4 (Homo sapiens, UniProt O96013).
Sequence of PAK4 (O96013 whole entry): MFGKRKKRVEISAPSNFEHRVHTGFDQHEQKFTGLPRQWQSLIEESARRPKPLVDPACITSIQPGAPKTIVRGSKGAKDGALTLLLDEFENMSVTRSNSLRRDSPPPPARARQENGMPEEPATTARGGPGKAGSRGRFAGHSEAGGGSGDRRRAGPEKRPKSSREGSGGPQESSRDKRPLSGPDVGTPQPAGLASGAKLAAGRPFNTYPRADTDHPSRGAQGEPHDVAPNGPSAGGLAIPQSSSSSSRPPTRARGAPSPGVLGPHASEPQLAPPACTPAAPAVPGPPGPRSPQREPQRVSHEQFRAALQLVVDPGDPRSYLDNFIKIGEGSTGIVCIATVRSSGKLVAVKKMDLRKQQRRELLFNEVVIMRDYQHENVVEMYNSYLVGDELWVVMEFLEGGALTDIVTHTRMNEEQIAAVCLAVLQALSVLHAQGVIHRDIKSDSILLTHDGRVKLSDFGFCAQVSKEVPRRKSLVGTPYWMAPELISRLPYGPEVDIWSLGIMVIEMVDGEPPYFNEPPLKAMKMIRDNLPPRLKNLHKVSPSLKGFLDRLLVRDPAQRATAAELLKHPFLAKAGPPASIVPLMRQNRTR

Sequence of DAPK3 (O43293 whole entry): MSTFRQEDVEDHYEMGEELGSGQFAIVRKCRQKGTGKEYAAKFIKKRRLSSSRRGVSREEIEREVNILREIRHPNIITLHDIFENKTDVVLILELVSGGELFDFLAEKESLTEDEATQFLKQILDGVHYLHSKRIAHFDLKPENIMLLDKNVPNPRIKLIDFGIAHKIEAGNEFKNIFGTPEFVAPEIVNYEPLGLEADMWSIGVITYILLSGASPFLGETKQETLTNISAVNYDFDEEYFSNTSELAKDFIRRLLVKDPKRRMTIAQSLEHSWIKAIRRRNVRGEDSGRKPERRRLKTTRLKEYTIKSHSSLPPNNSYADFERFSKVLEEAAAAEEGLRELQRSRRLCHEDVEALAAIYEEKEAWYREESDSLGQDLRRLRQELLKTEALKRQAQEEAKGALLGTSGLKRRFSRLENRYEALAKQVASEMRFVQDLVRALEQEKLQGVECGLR
Sequence of BRAF (P15056 whole entry): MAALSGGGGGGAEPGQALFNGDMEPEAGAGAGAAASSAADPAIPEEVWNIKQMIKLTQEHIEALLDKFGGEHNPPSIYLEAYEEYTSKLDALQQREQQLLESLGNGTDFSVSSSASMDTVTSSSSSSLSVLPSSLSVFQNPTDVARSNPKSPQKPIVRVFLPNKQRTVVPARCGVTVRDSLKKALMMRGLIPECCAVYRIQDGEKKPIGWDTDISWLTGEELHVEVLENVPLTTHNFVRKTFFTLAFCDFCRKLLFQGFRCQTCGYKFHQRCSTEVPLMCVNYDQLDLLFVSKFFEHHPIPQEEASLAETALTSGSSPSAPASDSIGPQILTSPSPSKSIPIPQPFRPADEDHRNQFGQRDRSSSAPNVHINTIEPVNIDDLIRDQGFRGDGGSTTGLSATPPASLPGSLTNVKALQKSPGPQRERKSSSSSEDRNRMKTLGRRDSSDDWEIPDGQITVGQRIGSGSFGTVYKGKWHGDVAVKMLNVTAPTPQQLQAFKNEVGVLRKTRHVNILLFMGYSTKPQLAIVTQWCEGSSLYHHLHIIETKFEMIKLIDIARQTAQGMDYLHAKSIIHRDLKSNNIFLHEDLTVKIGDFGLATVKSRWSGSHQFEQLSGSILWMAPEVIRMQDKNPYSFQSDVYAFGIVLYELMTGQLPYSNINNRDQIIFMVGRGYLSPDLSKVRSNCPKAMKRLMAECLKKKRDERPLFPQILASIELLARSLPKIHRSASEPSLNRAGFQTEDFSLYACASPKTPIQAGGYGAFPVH
Sequence of MST4 (Q9P289 whole entry): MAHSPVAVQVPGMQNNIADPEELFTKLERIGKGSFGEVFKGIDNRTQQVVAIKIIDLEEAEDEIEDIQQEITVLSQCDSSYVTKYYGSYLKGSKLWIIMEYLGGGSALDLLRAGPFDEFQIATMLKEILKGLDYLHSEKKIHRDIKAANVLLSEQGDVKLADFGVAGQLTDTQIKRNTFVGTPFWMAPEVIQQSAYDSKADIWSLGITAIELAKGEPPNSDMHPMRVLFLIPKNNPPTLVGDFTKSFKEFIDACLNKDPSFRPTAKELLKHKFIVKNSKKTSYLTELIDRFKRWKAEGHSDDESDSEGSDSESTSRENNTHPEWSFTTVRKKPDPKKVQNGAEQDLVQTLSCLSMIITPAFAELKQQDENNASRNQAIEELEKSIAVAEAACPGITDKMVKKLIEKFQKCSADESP

As for `Cc1cccc(-c2ccc(-c3cc4cnc(NCCCN5CCNCC5)nc4n(CCCCN)c3=O)c(Cl)c2)n1` [compound 29, 8-(4-Aminobutyl)-6-(2-chloro-4-(6-methylpyridin-2-yl)phenyl)-2-((3-(piperazin-1-yl)propyl)amino)pyrido[2,3-d]pyrimidin-7(8H)-one], the “ΔTm 29” value came to 1.5 °C in assay [1]; 0.0 °C in assay [2]; 2.3 °C in assay [3]; 0.7 °C in assay [4]; 1.0 °C in assay [5]; 10.2 °C in assay [6]. The “ΔTm 29” value in assay [7] is 4.9 °C; in assay [8], 2.6 °C.
Turning to `Cc1cccc(-c2ccc(-c3cc4cnc(NCCCN5CCCC5=O)nc4n(CCCCN)c3=O)c(Cl)c2)n1` [compound 27, MR30], the “ΔTm MR30 (27)” value in assay [1] came out at 2.6 °C; in assay [2], 0.6 °C; in assay [3] it was 2.3 °C; in assay [4] it was 0.2 °C; in assay [5], 0.7 °C; in assay [6] it was 7.9 °C. Moreover, the results for the “ΔTm MR30 (27)” value in assay [7] and in assay [8] were 1.5 °C and 2.8 °C, respectively.
`Cc1cccc(-c2ccc(-c3cc4cnc(Nc5ccc(O)cc5)nc4n(CCCCN)c3=O)c(Cl)c2)n1` [compound 31, 8-(4-Aminobutyl)-6-(2-chloro-4-(6-methylpyridin-2-yl)phenyl)-2-((4-hydroxyphenyl)amino) pyrido[2,3-d]pyrimidin-7(8H)-one]: the “ΔTm 31” value is 5.0 °C in assay [1]; 2.0 °C in assay [2]; 5.3 °C in assay [3]; 1.5 °C in assay [4]; 3.3 °C in assay [5]; 14.7 °C in assay [6]. Besides, the “ΔTm 31” value in assay [7] is 9.9 °C; in assay [8], 8.5 °C.
As to `Cc1cccc(-c2ccc(-c3cc4cnc(Nc5ccc(CCCO)cc5)nc4n(CCCCN)c3=O)c(Cl)c2)n1` [compound 30, 8-(4-Aminobutyl)-6-(2-chloro-4-(6-methylpyridin-2-yl)phenyl)-2-((4-(3-hydroxypropyl)phenyl)amino)pyrido[2,3-d]pyrimidin-7(8H)-one], the “ΔTm 30” value is 6.2 °C in assay [1]; 2.9 °C in assay [2]; 6.9 °C in assay [3]; 1.0 °C in assay [4]; 3.1 °C in assay [5]; 15.3 °C in assay [6]. For the same compound, the “ΔTm 30” value is 10.7 °C in assay [7] and 9.0 °C in assay [8].
For `Cc1cccc(-c2ccc(-c3cc4cnc(Nc5cc(C(F)(F)F)ccc5C)nc4n(CCCCN)c3=O)c(Cl)c2)n1` [compound 28, 8-(4-Aminobutyl)-6-(2-chloro-4-(6-methylpyridin-2-yl)phenyl)-2-((2-methyl-5-(trifluoromethyl)phenyl)amino)pyrido[2,3-d]pyrimidin-7(8H)-one], the “ΔTm 28” value is 3.2 °C in assay [1]; 1.0 °C in assay [2]; 4.1 °C in assay [3]; 1.1 °C in assay [4]; 0.1 °C in assay [5]; 8.8 °C in assay [6]. Also, the “ΔTm 28” value came to 7.1 °C in assay [7] and 3.5 °C in assay [8].
On to `Cc1cccc(-c2ccc(-c3cc4cnc(Nc5ccc(C)c(O)c5)nc4n(CCCCN)c3=O)c(Cl)c2)n1` [compound 32, 8-(4-Aminobutyl)-6-(2-chloro-4-(6-methylpyridin-2-yl)phenyl)-2-((3-hydroxy-4-methylphenyl)amino)pyrido[2,3-d]pyrimidin-7(8H)-one], for which the “ΔTm 32” value is 5.7 °C in assay [1]; 2.6 °C in assay [2]; 8.5 °C in assay [3]; 2.0 °C in assay [4]; 2.8 °C in assay [5]; 15.5 °C in assay [6]. For the same compound, the “ΔTm 32” value in assay [7] came out at 10.1 °C; in assay [8] it was 7.9 °C.

Values taken from doi:10.1101/2023.11.24.568596v1 (biorxiv, 2023).
